What was measured:
[1] = tested on: maternal HIV+ sera (antibodies); assay: RIA / ELISA binding of maternal HIV+ sera to gp120 and gp41 peptides (Example 3); parameters: species or system human
Procedure, shortened: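 Maternal sera, diluted 1:50 and 1:500, were bound overnight at 4°C to peptides immobilized at 10 μg/ml (pH 9.6 carbonate) and blocked with 1% BSA. Read-out was ¹²⁵I-labelled anti-human IgG counts or HRP-TMB OD450. Signal with peptide minus without was expressed relative to seronegative serum.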

[2] = tested on: maternal sera (antibodies); assay: ELISA peptide-binding of maternal sera (Example 6); parameters: species or system human; details: for Number of Non-Transmitters which bound to peptide / Percent of Non-Transmitters which bound to peptide: N = 12; for Number of Transmitters which bound to peptide / Percent of Transmitters which bound to peptide: N = 4
Procedure, shortened: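 HIV-1 envelope peptides averaging 16 amino acids, covering external and transmembrane glycoprotein, were probed by ELISA. Third-trimester maternal sera, classed as transmitter or non-transmitter by child diagnosis, were each run on at least 40 peptides. Values give percent of sera binding a peptide.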

[3] = Serum No. 1, Non-Transmission Group
[4] = Serum No. 2, Non-Transmission Group
[5] = Serum No. 3, Non-Transmission Group
[6] = Serum No. 4, Transmission Group
[7] = Serum No. 5, Transmission Group
[8] = Serum No. 6, Non-Transmission Group
[9] = Serum No. 7, Non-Transmission Group
[10] = Serum No. 8, Non-Transmission Group
[11] = Serum No. 9, Non-Transmission Group
[12] = Serum No. 10, Transmission Group
[13] = Serum No. 11, Non-Transmission Group
[14] = Serum No. 12, Non-Transmission Group
[15] = Serum No. 13, Transmission Group
[16] = Serum No. 14, Transmission Group
[17] = Serum No. 15, Transmission Group
[18] = Serum No. 16, Non-Transmission Group
[19] = Serum No. 17, Non-Transmission Group
[20] = Serum No. 18, Non-Transmission Group
[21] = Serum No. 19, Transmission Group
[22] = Serum No. 20, Non-Transmission Group

Row | Sequence | Binding of maternal HIV+ serum to peptide (sera/NHS ratio) [1, 3] | Binding of maternal HIV+ serum to peptide (sera/NHS ratio) [1, 4] | Binding of maternal HIV+ serum to peptide (sera/NHS ratio) [1, 5] | Binding of maternal HIV+ serum to peptide (sera/NHS ratio) [1, 6] | Binding of maternal HIV+ serum to peptide (sera/NHS ratio) [1, 7] | Binding of maternal HIV+ serum to peptide (sera/NHS ratio) [1, 8] | Binding of maternal HIV+ serum to peptide (sera/NHS ratio) [1, 9] | Binding of maternal HIV+ serum to peptide (sera/NHS ratio) [1, 10] | Binding of maternal HIV+ serum to peptide (sera/NHS ratio) [1, 11] | Binding of maternal HIV+ serum to peptide (sera/NHS ratio) [1, 12] | Binding of maternal HIV+ serum to peptide (sera/NHS ratio) [1, 13] | Binding of maternal HIV+ serum to peptide (sera/NHS ratio) [1, 14] | Binding of maternal HIV+ serum to peptide (sera/NHS ratio) [1, 15] | Binding of maternal HIV+ serum to peptide (sera/NHS ratio) [1, 16] | Binding of maternal HIV+ serum to peptide (sera/NHS ratio) [1, 17] | Binding of maternal HIV+ serum to peptide (sera/NHS ratio) [1, 18] | Binding of maternal HIV+ serum to peptide (sera/NHS ratio) [1, 19] | Binding of maternal HIV+ serum to peptide (sera/NHS ratio) [1, 20] | Binding of maternal HIV+ serum to peptide (sera/NHS ratio) [1, 21] | Binding of maternal HIV+ serum to peptide (sera/NHS ratio) [1, 22] | other results
1 | EGGERDRDRSIRLVN [Peptide 129] | + (which value is between 2 to 3) | - (specific OD450 or cpm of sera sample binding to peptide divided by the specific OD450 or cpm of NHS sample binding to peptide, which value is less than 2) | - (specific OD450 or cpm of sera sample binding to peptide divided by the specific OD450 or cpm of NHS sample binding to peptide, which value is less than 2) | - (specific OD450 or cpm of sera sample binding to peptide divided by the specific OD450 or cpm of NHS sample binding to peptide, which value is less than 2) | - (specific OD450 or cpm of sera sample binding to peptide divided by the specific OD450 or cpm of NHS sample binding to peptide, which value is less than 2) | - (specific OD450 or cpm of sera sample binding to peptide divided by the specific OD450 or cpm of NHS sample binding to peptide, which value is less than 2) | - (specific OD450 or cpm of sera sample binding to peptide divided by the specific OD450 or cpm of NHS sample binding to peptide, which value is less than 2) | - (specific OD450 or cpm of sera sample binding to peptide divided by the specific OD450 or cpm of NHS sample binding to peptide, which value is less than 2) | - (specific OD450 or cpm of sera sample binding to peptide divided by the specific OD450 or cpm of NHS sample binding to peptide, which value is less than 2) | - (specific OD450 or cpm of sera sample binding to peptide divided by the specific OD450 or cpm of NHS sample binding to peptide, which value is less than 2) | - (specific OD450 or cpm of sera sample binding to peptide divided by the specific OD450 or cpm of NHS sample binding to peptide, which value is less than 2) | - (specific OD450 or cpm of sera sample binding to peptide divided by the specific OD450 or cpm of NHS sample binding to peptide, which value is less than 2) | - (specific OD450 or cpm of sera sample binding to peptide divided by the specific OD450 or cpm of NHS sample binding to peptide, which value is less than 2) | - (specific OD450 or cpm of sera sample binding to peptide divided by the specific OD450 or cpm of NHS sample binding to peptide, which value is less than 2) | - (specific OD450 or cpm of sera sample binding to peptide divided by the specific OD450 or cpm of NHS sample binding to peptide, which value is less than 2) | - (specific OD450 or cpm of sera sample binding to peptide divided by the specific OD450 or cpm of NHS sample binding to peptide, which value is less than 2) | - (specific OD450 or cpm of sera sample binding to peptide divided by the specific OD450 or cpm of NHS sample binding to peptide, which value is less than 2) | - (specific OD450 or cpm of sera sample binding to peptide divided by the specific OD450 or cpm of NHS sample binding to peptide, which value is less than 2) | - (specific OD450 or cpm of sera sample binding to peptide divided by the specific OD450 or cpm of NHS sample binding to peptide, which value is less than 2) | - (specific OD450 or cpm of sera sample binding to peptide divided by the specific OD450 or cpm of NHS sample binding to peptide, which value is less than 2) | Number of Non-Transmitters which bound to peptide [2]: 0; Percent of Non-Transmitters which bound to peptide [2]: 0%; Number of Transmitters which bound to peptide [2]: 0; Percent of Transmitters which bound to peptide [2]: 0%
2 | NYTSLIHSLIEESQNQ [Peptide 41] | - (specific OD450 or cpm of sera sample binding to peptide divided by the specific OD450 or cpm of NHS sample binding to peptide, which value is less than 2) | - (specific OD450 or cpm of sera sample binding to peptide divided by the specific OD450 or cpm of NHS sample binding to peptide, which value is less than 2) | - (specific OD450 or cpm of sera sample binding to peptide divided by the specific OD450 or cpm of NHS sample binding to peptide, which value is less than 2) | - (specific OD450 or cpm of sera sample binding to peptide divided by the specific OD450 or cpm of NHS sample binding to peptide, which value is less than 2) | - (specific OD450 or cpm of sera sample binding to peptide divided by the specific OD450 or cpm of NHS sample binding to peptide, which value is less than 2) | - (specific OD450 or cpm of sera sample binding to peptide divided by the specific OD450 or cpm of NHS sample binding to peptide, which value is less than 2) | - (specific OD450 or cpm of sera sample binding to peptide divided by the specific OD450 or cpm of NHS sample binding to peptide, which value is less than 2) | - (specific OD450 or cpm of sera sample binding to peptide divided by the specific OD450 or cpm of NHS sample binding to peptide, which value is less than 2) | - (specific OD450 or cpm of sera sample binding to peptide divided by the specific OD450 or cpm of NHS sample binding to peptide, which value is less than 2) | - (specific OD450 or cpm of sera sample binding to peptide divided by the specific OD450 or cpm of NHS sample binding to peptide, which value is less than 2) | - (specific OD450 or cpm of sera sample binding to peptide divided by the specific OD450 or cpm of NHS sample binding to peptide, which value is less than 2) | - (specific OD450 or cpm of sera sample binding to peptide divided by the specific OD450 or cpm of NHS sample binding to peptide, which value is less than 2) | - (specific OD450 or cpm of sera sample binding to peptide divided by the specific OD450 or cpm of NHS sample binding to peptide, which value is less than 2) | - (specific OD450 or cpm of sera sample binding to peptide divided by the specific OD450 or cpm of NHS sample binding to peptide, which value is less than 2) | - (specific OD450 or cpm of sera sample binding to peptide divided by the specific OD450 or cpm of NHS sample binding to peptide, which value is less than 2) | - (specific OD450 or cpm of sera sample binding to peptide divided by the specific OD450 or cpm of NHS sample binding to peptide, which value is less than 2) | - (specific OD450 or cpm of sera sample binding to peptide divided by the specific OD450 or cpm of NHS sample binding to peptide, which value is less than 2) | - (specific OD450 or cpm of sera sample binding to peptide divided by the specific OD450 or cpm of NHS sample binding to peptide, which value is less than 2) | - (specific OD450 or cpm of sera sample binding to peptide divided by the specific OD450 or cpm of NHS sample binding to peptide, which value is less than 2) | - (specific OD450 or cpm of sera sample binding to peptide divided by the specific OD450 or cpm of NHS sample binding to peptide, which value is less than 2) | Number of Non-Transmitters which bound to peptide [2]: 0; Percent of Non-Transmitters which bound to peptide [2]: 0%; Number of Transmitters which bound to peptide [2]: 0; Percent of Transmitters which bound to peptide [2]: 0%

— patent US5556744A, “Methods and compositions for diagnosing and treating certain HIV infected patients” (The Trustees of the University of Pennsylvania, priority 1994, dated 1996)
